Experimental data as given in article PMC11207571, “Applicability of MDR1 Overexpressing Abcb1KO-MDCKII Cell Lines for Investigating In Vitro Species Differences and Brain Penetration Prediction” (Pharmaceutics, 2024).

What was measured:
rat Mdr1a [1] = molecular target: T1, rat Mdr1a (Rattus norvegicus, UniProt Q6PSM0); test: Inhibition of 3H-digoxin or 3H-quinidine bidirectional transport in rMDR1 cells; assay type: cell-based; parameters: rat Mdr1a (NM_133401.1); expressed in transfected cells; host or cells: Abcb1KO-MDCKII (canine kidney, endogenous Abcb1 knocked out), transduced, single-cell clone; conditions: IC50 from ER
mouse Mdr1a [2] = molecular target: T2, mouse Mdr1a (Mus musculus, UniProt P21447); test: Inhibition of 3H-digoxin or 3H-quinidine bidirectional transport in mMDR1 cells; assay type: cell-based; parameters: mouse Mdr1a (NM_011076.3); expressed in transfected cells; host or cells: Abcb1KO-MDCKII (canine kidney, endogenous Abcb1 knocked out), transduced, single-cell clone; conditions: IC50 from ER
cynomolgus monkey Mdr1 [3] = molecular target: T3, cynomolgus monkey Mdr1 (Macaca fascicularis, UniProt Q8HZQ6); test: cell-based
human MDR1 [4] = molecular target: T4, human MDR1 (Homo sapiens, UniProt P08183); test: Inhibition of 3H-digoxin or 3H-quinidine bidirectional transport in hMDR1 cells; conditions: IC50 from ER
cynomolgus monkey Mdr1 [5] = molecular target: T3, cynomolgus monkey Mdr1; test: Inhibition of 3H-digoxin or 3H-quinidine bidirectional transport in cyMDR1 cells; conditions: 60 min, IC50 from ER; for IC50: Inhibition of quinidine transport IC50±SD, cyMDR1, probe 3H-quinidine 0.1 µM
[6] = Bidirectional transport assay, efflux ratio in Abcb1KO-MDCKII-Mock control cells; conditions: dog, MDCK, pH 7.4
Protocol: (§1) Eluent A consisted of 0.1% formic acid in water, eluent B consisted of 0.1% formic acid in acetonitrile. Then, 10 µL samples were injected into the HPLC-MS/MS system. Mass spectrometric detection was performed in SRM mode, and ion transitions for each analyte were optimized during method development. Samples were analyzed in pools, with each pool containing three to four analytes.

human MDR1 [7] = molecular target: T4, human MDR1; test: in vitro; conditions: human, MDCK-MDR1, pH 7.4
Protocol: as §1

rat Mdr1a [8] = molecular target: T1, rat Mdr1a; test: Bidirectional transport assay, efflux ratio in Abcb1KO-MDCKII rMDR1 cells; conditions: rat, pH 7.4
Protocol: as §1

mouse Mdr1a [9] = molecular target: T2, mouse Mdr1a; test: Bidirectional transport assay, efflux ratio in Abcb1KO-MDCKII mMDR1 cells; conditions: mouse, pH 7.4
Protocol: as §1

cynomolgus monkey Mdr1 [10] = molecular target: T3, cynomolgus monkey Mdr1; test: Bidirectional transport assay, efflux ratio in Abcb1KO-MDCKII cyMDR1 cells; conditions: cynomolgus monkey, pH 7.4
Protocol: as §1

human BCRP = molecular target: T5, human BCRP (Homo sapiens, UniProt Q9UNQ0); test: in vitro; conditions: human, pH 7.4
T5 sequence (Q9UNQ0 1-655): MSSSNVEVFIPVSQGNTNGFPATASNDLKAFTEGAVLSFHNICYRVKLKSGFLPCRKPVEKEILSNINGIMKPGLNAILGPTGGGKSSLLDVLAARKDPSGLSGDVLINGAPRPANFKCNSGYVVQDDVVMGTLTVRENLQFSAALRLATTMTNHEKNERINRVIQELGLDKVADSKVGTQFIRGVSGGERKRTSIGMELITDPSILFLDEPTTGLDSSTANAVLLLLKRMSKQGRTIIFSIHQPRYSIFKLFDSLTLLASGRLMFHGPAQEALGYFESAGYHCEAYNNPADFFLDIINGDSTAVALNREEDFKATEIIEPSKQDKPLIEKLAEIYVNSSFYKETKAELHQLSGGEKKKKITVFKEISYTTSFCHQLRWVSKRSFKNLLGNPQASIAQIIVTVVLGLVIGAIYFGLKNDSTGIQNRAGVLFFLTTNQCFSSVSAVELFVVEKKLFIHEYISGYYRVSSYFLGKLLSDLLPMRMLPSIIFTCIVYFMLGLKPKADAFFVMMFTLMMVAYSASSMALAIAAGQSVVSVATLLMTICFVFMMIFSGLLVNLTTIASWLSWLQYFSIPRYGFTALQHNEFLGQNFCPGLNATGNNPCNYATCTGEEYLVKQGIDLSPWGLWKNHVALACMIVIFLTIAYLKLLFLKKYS
Protocol: as §1

[11] = Inhibition of digoxin transport IC50±SD, rMDR1, probe 3H-digoxin 1 µM, 120 min
[12] = Inhibition of digoxin transport IC50±SD, mMDR1, probe 3H-digoxin 1 µM, 120 min
[13] = Inhibition of digoxin transport IC50±SD, hMDR1, probe 3H-digoxin 1 µM, 120 min
[14] = Inhibition of quinidine transport IC50±SD, hMDR1, probe 3H-quinidine 1 µM, 60 min
[15] = Inhibition of quinidine transport IC50±SD, rMDR1, probe 3H-quinidine 1 µM, 30 min
[16] = Inhibition of quinidine transport IC50±SD, mMDR1, probe 3H-quinidine 1 µM, 60 min
[17] = probe 3H-quinidine 1 µM, 60 min

T1 sequence (Q6PSM0 1-1272): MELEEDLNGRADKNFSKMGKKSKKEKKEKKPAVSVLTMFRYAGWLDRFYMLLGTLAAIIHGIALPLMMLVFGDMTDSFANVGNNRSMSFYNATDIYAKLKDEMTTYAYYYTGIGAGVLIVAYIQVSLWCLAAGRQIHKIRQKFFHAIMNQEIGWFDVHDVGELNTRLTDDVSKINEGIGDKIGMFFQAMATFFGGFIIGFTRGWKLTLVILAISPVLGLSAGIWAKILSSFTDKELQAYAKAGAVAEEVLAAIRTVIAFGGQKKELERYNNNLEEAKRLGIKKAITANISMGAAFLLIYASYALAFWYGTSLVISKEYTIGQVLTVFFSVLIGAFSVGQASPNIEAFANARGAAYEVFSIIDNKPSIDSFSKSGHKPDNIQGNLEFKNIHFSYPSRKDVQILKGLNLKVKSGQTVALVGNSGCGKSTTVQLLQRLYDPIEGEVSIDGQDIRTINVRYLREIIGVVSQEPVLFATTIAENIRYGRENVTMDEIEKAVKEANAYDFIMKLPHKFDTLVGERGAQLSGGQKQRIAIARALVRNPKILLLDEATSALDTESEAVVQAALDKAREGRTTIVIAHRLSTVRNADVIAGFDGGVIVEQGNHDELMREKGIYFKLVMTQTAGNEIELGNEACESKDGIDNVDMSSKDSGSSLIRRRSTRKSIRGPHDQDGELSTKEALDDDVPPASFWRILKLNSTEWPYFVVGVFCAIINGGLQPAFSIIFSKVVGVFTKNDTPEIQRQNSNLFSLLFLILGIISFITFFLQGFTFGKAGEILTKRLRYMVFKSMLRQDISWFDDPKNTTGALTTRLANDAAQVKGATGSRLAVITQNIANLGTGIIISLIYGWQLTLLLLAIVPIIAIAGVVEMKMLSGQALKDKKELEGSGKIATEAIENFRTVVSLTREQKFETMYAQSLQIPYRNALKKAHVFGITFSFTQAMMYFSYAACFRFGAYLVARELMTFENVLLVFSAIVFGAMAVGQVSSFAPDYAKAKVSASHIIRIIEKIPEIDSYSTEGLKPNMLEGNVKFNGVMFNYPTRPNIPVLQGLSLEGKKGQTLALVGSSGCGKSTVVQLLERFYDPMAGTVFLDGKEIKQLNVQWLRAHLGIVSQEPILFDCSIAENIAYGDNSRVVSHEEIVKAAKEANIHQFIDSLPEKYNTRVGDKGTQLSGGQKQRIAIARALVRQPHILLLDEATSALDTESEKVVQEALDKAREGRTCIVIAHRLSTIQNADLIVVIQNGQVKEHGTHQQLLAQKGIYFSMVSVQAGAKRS
T2 sequence (P21447 whole entry): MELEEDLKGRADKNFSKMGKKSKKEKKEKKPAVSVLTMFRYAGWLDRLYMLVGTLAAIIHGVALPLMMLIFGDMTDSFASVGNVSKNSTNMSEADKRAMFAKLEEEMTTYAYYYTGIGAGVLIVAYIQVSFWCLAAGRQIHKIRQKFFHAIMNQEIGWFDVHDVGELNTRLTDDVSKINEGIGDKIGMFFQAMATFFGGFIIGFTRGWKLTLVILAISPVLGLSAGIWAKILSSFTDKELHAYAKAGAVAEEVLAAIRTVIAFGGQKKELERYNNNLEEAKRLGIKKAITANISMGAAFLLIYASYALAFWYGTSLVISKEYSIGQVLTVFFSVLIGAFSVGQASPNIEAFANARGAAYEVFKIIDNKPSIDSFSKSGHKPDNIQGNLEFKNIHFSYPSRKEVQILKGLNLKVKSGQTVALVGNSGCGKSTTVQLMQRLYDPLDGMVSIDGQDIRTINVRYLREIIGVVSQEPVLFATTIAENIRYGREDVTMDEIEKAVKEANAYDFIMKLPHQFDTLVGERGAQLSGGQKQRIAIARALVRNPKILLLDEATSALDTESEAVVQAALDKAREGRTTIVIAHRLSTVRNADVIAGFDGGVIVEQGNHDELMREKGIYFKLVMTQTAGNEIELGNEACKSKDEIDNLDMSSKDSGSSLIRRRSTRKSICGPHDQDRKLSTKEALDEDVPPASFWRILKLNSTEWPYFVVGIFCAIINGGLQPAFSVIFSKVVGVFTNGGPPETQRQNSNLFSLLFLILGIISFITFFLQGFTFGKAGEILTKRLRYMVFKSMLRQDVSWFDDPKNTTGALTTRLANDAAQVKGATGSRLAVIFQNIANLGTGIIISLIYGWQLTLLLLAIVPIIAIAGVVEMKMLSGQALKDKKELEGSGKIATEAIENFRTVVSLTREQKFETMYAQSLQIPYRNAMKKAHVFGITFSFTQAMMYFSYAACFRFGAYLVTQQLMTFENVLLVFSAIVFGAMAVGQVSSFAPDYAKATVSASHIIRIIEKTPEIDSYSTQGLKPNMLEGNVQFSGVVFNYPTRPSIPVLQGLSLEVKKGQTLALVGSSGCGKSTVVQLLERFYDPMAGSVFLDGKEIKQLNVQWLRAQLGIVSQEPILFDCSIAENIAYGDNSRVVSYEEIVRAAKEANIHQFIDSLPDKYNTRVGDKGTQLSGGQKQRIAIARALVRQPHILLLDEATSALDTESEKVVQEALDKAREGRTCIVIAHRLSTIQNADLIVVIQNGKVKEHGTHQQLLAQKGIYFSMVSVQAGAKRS
T3 sequence (Q8HZQ6 1-1283): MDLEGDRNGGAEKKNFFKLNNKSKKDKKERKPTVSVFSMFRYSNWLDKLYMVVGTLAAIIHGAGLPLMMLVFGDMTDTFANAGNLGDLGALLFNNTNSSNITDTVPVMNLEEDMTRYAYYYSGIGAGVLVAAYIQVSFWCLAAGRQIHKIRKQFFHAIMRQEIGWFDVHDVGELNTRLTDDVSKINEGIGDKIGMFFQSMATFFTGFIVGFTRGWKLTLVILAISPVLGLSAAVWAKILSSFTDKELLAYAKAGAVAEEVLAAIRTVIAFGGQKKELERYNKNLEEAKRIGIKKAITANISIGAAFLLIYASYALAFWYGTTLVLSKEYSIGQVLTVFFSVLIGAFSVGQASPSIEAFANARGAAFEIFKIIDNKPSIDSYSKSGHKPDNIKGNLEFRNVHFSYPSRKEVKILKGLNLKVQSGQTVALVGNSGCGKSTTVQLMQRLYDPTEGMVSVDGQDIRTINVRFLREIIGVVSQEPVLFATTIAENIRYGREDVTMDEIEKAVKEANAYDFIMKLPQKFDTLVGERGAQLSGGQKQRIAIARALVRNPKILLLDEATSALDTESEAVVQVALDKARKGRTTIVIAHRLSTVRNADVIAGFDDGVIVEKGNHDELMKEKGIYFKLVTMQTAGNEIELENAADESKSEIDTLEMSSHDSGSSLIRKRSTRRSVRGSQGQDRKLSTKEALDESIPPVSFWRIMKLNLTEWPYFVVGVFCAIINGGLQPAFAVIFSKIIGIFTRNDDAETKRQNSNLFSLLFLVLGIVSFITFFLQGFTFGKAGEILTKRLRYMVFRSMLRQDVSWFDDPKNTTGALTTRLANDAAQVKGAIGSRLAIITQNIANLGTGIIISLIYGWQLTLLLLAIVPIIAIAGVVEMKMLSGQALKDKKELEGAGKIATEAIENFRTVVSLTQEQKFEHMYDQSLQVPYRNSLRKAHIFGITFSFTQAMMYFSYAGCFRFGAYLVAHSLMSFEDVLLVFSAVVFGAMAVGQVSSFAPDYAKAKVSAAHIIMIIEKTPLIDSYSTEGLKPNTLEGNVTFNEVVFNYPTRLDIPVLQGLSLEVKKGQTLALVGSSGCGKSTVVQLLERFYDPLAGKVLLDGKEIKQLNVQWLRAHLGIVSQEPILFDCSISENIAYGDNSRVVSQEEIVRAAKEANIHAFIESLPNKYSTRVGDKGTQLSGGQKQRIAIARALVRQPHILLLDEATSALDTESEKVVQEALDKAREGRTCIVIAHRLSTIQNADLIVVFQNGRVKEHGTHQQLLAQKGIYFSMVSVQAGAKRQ
T4 sequence (P08183 whole entry): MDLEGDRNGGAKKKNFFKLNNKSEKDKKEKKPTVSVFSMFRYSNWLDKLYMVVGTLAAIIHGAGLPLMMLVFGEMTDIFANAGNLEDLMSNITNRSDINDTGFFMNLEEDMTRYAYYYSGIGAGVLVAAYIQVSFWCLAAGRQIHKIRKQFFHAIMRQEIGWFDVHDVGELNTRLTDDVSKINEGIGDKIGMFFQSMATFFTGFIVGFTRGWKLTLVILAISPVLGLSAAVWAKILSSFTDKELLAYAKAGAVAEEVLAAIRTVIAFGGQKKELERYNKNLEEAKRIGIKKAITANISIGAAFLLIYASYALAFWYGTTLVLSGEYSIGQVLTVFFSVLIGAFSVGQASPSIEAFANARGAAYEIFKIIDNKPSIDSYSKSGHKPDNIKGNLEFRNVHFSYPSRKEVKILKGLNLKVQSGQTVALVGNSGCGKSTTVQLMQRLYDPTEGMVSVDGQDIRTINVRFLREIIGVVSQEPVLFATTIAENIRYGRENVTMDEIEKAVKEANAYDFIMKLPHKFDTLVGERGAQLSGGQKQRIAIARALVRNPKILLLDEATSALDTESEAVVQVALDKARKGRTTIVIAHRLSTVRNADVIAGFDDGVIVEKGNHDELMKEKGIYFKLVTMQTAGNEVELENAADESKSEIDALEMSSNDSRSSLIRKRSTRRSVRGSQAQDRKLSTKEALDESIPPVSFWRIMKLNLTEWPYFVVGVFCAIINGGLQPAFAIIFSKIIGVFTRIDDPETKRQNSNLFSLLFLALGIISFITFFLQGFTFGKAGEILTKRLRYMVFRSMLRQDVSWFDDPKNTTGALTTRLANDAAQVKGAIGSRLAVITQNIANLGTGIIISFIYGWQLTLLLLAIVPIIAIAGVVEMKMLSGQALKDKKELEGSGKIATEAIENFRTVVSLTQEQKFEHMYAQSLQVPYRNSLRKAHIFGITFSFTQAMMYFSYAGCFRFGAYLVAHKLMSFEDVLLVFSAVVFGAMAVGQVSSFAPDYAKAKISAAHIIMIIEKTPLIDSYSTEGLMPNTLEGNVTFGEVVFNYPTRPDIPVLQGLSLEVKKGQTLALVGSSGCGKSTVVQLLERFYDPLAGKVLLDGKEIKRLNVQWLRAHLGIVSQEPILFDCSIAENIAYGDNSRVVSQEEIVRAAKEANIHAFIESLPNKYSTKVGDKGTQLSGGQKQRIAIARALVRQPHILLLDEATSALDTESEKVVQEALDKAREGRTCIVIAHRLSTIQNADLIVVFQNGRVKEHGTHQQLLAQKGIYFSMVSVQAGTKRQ

| SMILES | IC50 (rat Mdr1a [1]; [11]) [µM] | IC50 (mouse Mdr1a [2]; [12]) [µM] | IC50 (cynomolgus monkey Mdr1 [3]) [µM] | IC50 (human MDR1 [4]; [13]) [µM] | IC50 (human MDR1 [4]; [14]) [µM] | IC50 (cynomolgus monkey Mdr1 [5]) [µM] | IC50 (rat Mdr1a [1]; [15]) [µM] | IC50 (mouse Mdr1a [2]; [16]) [µM] | efflux ratio at 120 min, 1 µM [6] | efflux ratio at 120 min, 1 µM (human MDR1 [7]) | efflux ratio at 120 min, 1 µM (rat Mdr1a [8]) | efflux ratio at 120 min, 1 µM (mouse Mdr1a [9]) | efflux ratio at 120 min, 1 µM (cynomolgus monkey Mdr1 [10]) | efflux ratio at 120 min, 1 µM (human BCRP) | other results |
| --- | --- | --- | --- | --- | --- | --- | --- | --- | --- | --- | --- | --- | --- | --- | --- |
| C=C[C@H]1C[N@@]2CC[C@H]1C[C@@H]2[C@@H](O)c1ccnc2ccc(OC)cc12 [Quinidine] | 2.93 ± 1.43 | 15 ± 4.06 |  |  |  |  |  |  |  |  |  |  |  |  |  |
| CCOC(=O)C1=C(C)NC(C)=C(C(=O)OC)C1c1cccc([N+](=O)[O-])c1 (centres unmarked) [Nitrendipine] | 4.02 ± 1.64 | > 50 | 3.15 ± 1.7 | > 50 | > 50 | 17.5 ± 4.96 | 6.34 ± 2.68 | 15.7 ± 5.68 |  |  |  |  |  |  |  |
| COC(=O)C1=C(C)NC(C)=C(C(=O)OC(C)C)C1c1cccc2nonc12 (centres unmarked) [Isradipine] | 15.2 ± 2.84 | 5.28 ± 2.94 | 10.6 ± 4.73 | > 50 | 2.07 ± 1.28 | 19.3 ± 5.76 | 13.6 ± 9.37 | 19.3 ± 3.75 |  |  |  |  |  |  |  |
| CN(C)C(=O)C(CCN1CCC(O)(c2ccc(Cl)cc2)CC1)(c1ccccc1)c1ccccc1 [Loperamide] | 11.1 ± 4.28 | 6.5 ± 1.1 | 6.3 ± 2.27 | 38.3 ± 4.59 | 4.75 ± 0.32 | 1.36 ± 0.34 | 1.01 ± 0.49 | 0.96 ± 0.33 | 0.49 ± 0.03 | 48.7 ± 3.51 | 10.5 ± 2.34 | 16 ± 2.75 | 6.38 ± 0.55 | 2 ± 0.23 |  |
| CC(C)(C)NCC(O)COc1ccc(NC(=O)NC2CCCCC2)cc1 (centres unmarked) [talinolol] |  |  |  |  |  |  |  |  |  |  |  |  |  |  | Inhibition of digoxin transport IC50±SD, hMDR1 (human MDR1 [4]; probe 3H-digoxin 1 µM, 120 min): no inhibition; Inhibition of quinidine transport IC50±SD, hMDR1 (human MDR1 [4]; [17]): no inhibition; Inhibition of quinidine transport IC50±SD, cyMDR1 (cynomolgus monkey Mdr1 [5]; probe 3H-quinidine 0.1 µM): no inhibition; Inhibition of digoxin transport IC50±SD, rMDR1 (rat Mdr1a [1]; probe 3H-digoxin 1 µM, 120 min): no inhibition; Inhibition of quinidine transport IC50±SD, rMDR1 (rat Mdr1a [1]; probe 3H-quinidine 1 µM, 30 min): no inhibition; Inhibition of digoxin transport IC50±SD, mMDR1 (mouse Mdr1a [2]; probe 3H-digoxin 1 µM, 120 min): no inhibition; Inhibition of quinidine transport IC50±SD, mMDR1 (mouse Mdr1a [2]; [17]): no inhibition |
| O[C@@H](COc1cccc2ncccc12)CN1CCN([C@@H]2c3ccccc3[C@@H]3[C@H](c4ccccc42)C3(F)F)CC1 [Zosuquidar] | 0.6 ± 0.29 | 0.37 ± 0.13 | 0.05 ± 0.02 |  |  | 0.12 ± 0.09 | 0.57 ± 0.21 | 0.49 ± 0.26 |  |  |  |  |  |  |  |
| CCOC(=O)C1=C(C)NC(C)=C(C(=O)OC)C1c1cccc(Cl)c1Cl (centres unmarked) [Felodipine] | > 100 | 28.6 ± 7.95 | 12.4 ± 5.74 |  |  | 50.7 ± 19.7 | 40.6 ± 7.71 | > 100 |  |  |  |  |  |  |  |
| CCC(C)n1ncn(-c2ccc(N3CCN(c4ccc(OCC5COC(Cn6cncn6)(c6ccc(Cl)cc6Cl)O5)cc4)CC3)cc2)c1=O (centres unmarked) [Itraconazole] | 4.41 ± 1.05 | 1.39 ± 0.5 | 0.36 ± 0.19 |  |  | 0.32 ± 0.12 | 0.15 ± 0.07 | 0.48 ± 0.11 |  |  |  |  |  |  |  |
| COc1cc2c(cc1OC)CN(CCc1ccc(NC(=O)c3cccc4c(=O)c5cccc(OC)c5[nH]c34)cc1)CC2 [Elacridar] | 0.32 ± 0.15 | 0.1 ± 0.07 | 0.09 ± 0.03 |  |  | 0.11 ± 0.08 | 0.06 | 0.2 ± 0.04 |  |  |  |  |  |  |  |
| COc1ccccc1OCCNCC(O)COc1cccc2[nH]c3ccccc3c12 (centres unmarked) [Carvedilol] | 4.22 ± 1 | 2 ± 0.55 | 1.55 ± 0.59 | 19.1 ± 7.45 | 0.41 ± 0.24 | 1.02 ± 0.79 | 1.01 ± 0.13 | 1.64 ± 0.9 | 0.62 ± 0.04 | 14.5 ± 0.62 | 2.13 ± 0.08 | 1.94 ± 0.21 | 1.12 ± 0.06 | 2.38 ± 0.23 |  |
| CC(C)(C)NC(=O)[C@@H]1C[C@@H]2CCCC[C@@H]2CN1C[C@@H](O)[C@H](Cc1ccccc1)NC(=O)[C@H](CC(N)=O)NC(=O)c1ccc2ccccc2n1 [Saquinavir] | 25 ± 11.4 |  | 12.3 ± 5.44 |  |  | 20.7 ± 7.67 | 12.3 ± 5.02 |  |  |  |  |  |  |  |  |
| Cc1ccccc1C(=O)Nc1ccc(C(=O)N2CCCC(O)c3cc(Cl)ccc32)c(C)c1 (centres unmarked) [Tolvaptan] | 8.79 ± 2.81 | 10.9 ± 1.46 | 6.68 ± 1.63 | > 30 | 1.28 ± 0.44 | 5.11 ± 1.65 | 4.14 ± 1.47 | 3.92 ± 0.87 |  |  |  |  |  |  |  |
| CCNc1nc(Cl)nc(NC(C)C)n1 [Atrazine] |  |  |  |  |  |  |  |  | 0.52 ± 0.04 | 0.52 ± 0.04 | 0.46 ± 0.04 | 0.59 ± 0.1 | 0.54 ± 0.03 | 0.63 ± 0.02 |  |
| CC[C@H]1OC(=O)[C@H](C)[C@@H](O[C@H]2C[C@@](C)(OC)[C@@H](O)[C@H](C)O2)[C@H](C)[C@@H](O[C@@H]2O[C@H](C)C[C@H](N(C)C)[C@H]2O)[C@](C)(OC)C[C@@H](C)C(=O)[C@H](C)[C@@H](O)[C@]1(C)O [Clarithromycin] |  |  |  |  |  |  |  |  | 0.53 ± 0.02 | 96.2 ± 3.83 | 25.1 ± 5.14 | 27.5 ± 1.62 | 17.2 ± 3.25 | 11.1 ± 1.46 |  |
| COCC(=O)O[C@]1(CCN(C)CCCc2nc3ccccc3[nH]2)CCc2cc(F)ccc2[C@@H]1C(C)C [Mibefradil] | 7.42 ± 2.76 | 7.15 ± 4.58 | 4.84 ± 1.82 |  |  | 3.61 ± 2.04 | 1.11 ± 0.21 |  |  |  |  |  |  |  |  |
| CN[C@H]1CC[C@@H](c2ccc(Cl)c(Cl)c2)c2ccccc21 [Sertraline] |  |  |  |  |  |  |  |  | 3.57 ± 0.3 | 3.1 ± 0.34 | 2.74 ± 0.28 | 2.93 ± 0.43 | 5.65 ± 0.81 | 3.7 ± 0.67 |  |
| COc1cccc2c1C(=O)c1c(O)c3c(c(O)c1C2=O)C[C@@](O)(C(C)=O)C[C@@H]3O[C@H]1C[C@H](N)[C@H](O)[C@H](C)O1 [Daunorubicin] |  |  |  |  |  |  |  |  | 1.04 ± 0.08 | 21.7 ± 5.36 | 16.9 ± 1.99 | 27.7 ± 2.63 | 83.1 ± 23.2 | 62.5 ± 14.1 |  |
| Cc1cccc(C)c1OCC(C)N (centres unmarked) [Mexiletine] |  |  |  |  |  |  |  |  | 0.36 ± 0.05 | 0.44 ± 0.03 | 0.42 ± 0.08 | 0.64 ± 0.16 | 0.51 ± 0.15 | 0.71 ± 0.05 |  |
| CN(C)CCC=C1c2ccccc2COc2ccccc21 [Doxepin] |  |  |  |  |  |  |  |  | 0.68 ± 0.09 | 0.79 ± 0.13 | 1.09 ± 0.16 | 0.91 ± 0.11 | 0.71 ± 0.06 | 0.54 ± 0.07 |  |
| CCCc1nc2c(C)cc(-c3nc4ccccc4n3C)cc2n1Cc1ccc(-c2ccccc2C(=O)O)cc1 [Telmisartan] | 11.6 ± 3.91 | 2.6 ± 1.59 | 4.06 ± 1.69 | 15.2 ± 5.66 | 1.81 ± 0.87 | 1.55 ± 0.53 | 2.72 ± 1.26 | 2.28 ± 0.97 | 0.38 ± 0.06 |  | 2.65 ± 0.75 | 2.2 ± 0.27 | 3.18 ± 0.63 | 12.2 ± 0.95 |  |
